Results on nine compounds are retold here after publication PMC8778091, “In Silico-Based Discovery of Natural Anthraquinones with Potential against Multidrug-Resistant E. coli” (Pharmaceuticals, 2022).

≈ marks a conversion by molar mass, not a printed value.

As a reminder, the IC50 is the midpoint of a concentration-inhibition curve. A word on the Ki: it is a dissociation constant, usually derived from enzyme kinetics or from competition with a known ligand. Broadly, the MIC is the least concentration at which growth counts as inhibited. Broadly, the CC50 is the concentration at which the toxic effect on the cells reaches its halfway point. A low value points to greater toxicity to the cells.

The subject of series [1] is E. coli (MDR) b clinical isolate. Put plainly: MIC, agar dilution method, E. coli MDR b. The series is classed as cell-based. Conditions: for MIC (antibiotic susceptibility) E. coli MDRb: Table S3, unpublished data of microbiology unit, Beni Suef general hospital, same procedure; for MIC: Escherichia coli, range 1-64 µg/mL, 37 °C, 18-20 h, read-out: MIC E. coli (MDR) b. Here is the method: (§1) The selected top-scoring hits were evaluated for their antibacterial effect against two clinical multidrug-resistant strains of enterotoxigenic E. coli. Both isolates were isolated as clinical samples from Beni Suef general hospital, Beni Suef, Egypt. […] MRSA (ATCC 25529) and VRSA (clinical isolate from Beni Suef general hospital, Beni Suef, Egypt) were also used to further evaluate the tested compounds against resistant Gram-positive bacteria.
(§2) Minimum inhibitory concentrations for the test compounds were analyzed following the standard agar dilution method using Meuller-Hinton (MH) agar medium against different Gram-negative and positive bacteria (Table 1). Firstly, the tested compounds were prepared as a stock suspension with a 10 mg/mL final concentration in DMSO. Subsequently, the prepared stocks were diluted in 10 mL molten soft agar (0.5% agar) to obtain a concentration range from 1–64 µg/mL, then mixed and poured over a surface of MH agar (2% agar) plates and left for solidification. Finally, exponentially grown (O.D 600 nm of 0.6) test strains (Table 1) were diluted to a final density of 10^6 CFU/mL in MH broth and spotted (1 µL/spot) over the soft agar. Then, the plates were left for drying and incubated at 37 °C for 18–20 h. Controls were conducted using DMSO seeded soft agar. At the end of the experiment, the MIC for each compound was identified as the minimum concentration that inhibited the growth of the tested strain. The experiments were carried out in triplicates.
For orientation: In agar dilution, organisms are placed on agar that contains the substance at set levels.

Series [2] relates to E. coli (MDR) a clinical isolate. Description: MIC, agar dilution method, E. coli MDR a. The format is cell-based. The conditions noted are these: for MIC (antibiotic susceptibility) E. coli MDRa: Table S3, unpublished data of microbiology unit, Beni Suef general hospital, same procedure; for MIC: Escherichia coli, range 1-64 µg/mL, 37 °C, 18-20 h, read-out: MIC E. coli (MDR) a. Here is the method:
as §1, §2

For series [3], the target named is T1, E. coli DAla:D-Ala ligase (Ddl-B) (Escherichia coli, UniProt P07862).
T1 construct: purchased ProFoldin DDA100KE
Put plainly: Ddl-B enzymatic activity assay (inorganic phosphate, absorbance 650 nm). The series is classed as biochemical. Here is the method:
Ddl-B and Gyr-B activity assays were performed according to the manufacturer protocols (ProFoldin, Catalogue No. DDA100KE, and Inspiralis, Catalogue No. ATPG001, UK).
Ddl-B enzymatic activity assay is based on measuring the inorganic phosphate generated from the D-Alanine: D-Alanine ligation reaction. The inorganic phosphate is detected by absorbance at 650 nm. The assay reactions and detection were performed by using a 96-well plate. Different concentrations of the test compounds and the reference inhibitor D-cycloserine were prepared in DMSO (from 10 µM to 1000 µM). […] Thereafter, 33 μL of 10× enzyme substrate was prepared by mixing 3.3 μL of 100× enzyme substrate with 29.7 μL of water. Finally, 27 μL of the premix with 3 μL of the 10× enzyme substrate in each well were mixed. After 60 min of incubation at 37 °C, 45 μL of MPA3000 dye was added into the 30 μL of the reaction mixture. After 5 min of incubation, absorbance was measured at 650 nm.

A further series has as its system MRSA (ATCC 25529). Description: MIC, agar dilution method, MRSA. The format is cell-based, S. aureus. Conditions: Staphylococcus aureus; range 1-64 µg/mL, 37 °C, 18-20 h; read-out: MIC MRSA. Here is the method: as §1, §2
A further series concerns VRSA (clinical isolate). Put plainly: MIC, agar dilution method, VRSA. Conditions: Staphylococcus aureus, VRSA; range 1-64 µg/mL, 37 °C, 18-20 h; read-out: MIC VRSA. The series is classed as cell-based, S. aureus. Here is the method: as §1, §2
Series [4] is described as follows: Cellular toxicity against normal fibroblasts WI-38 (MTT). The series is classed as cell-based. Conditions: human. Here is the method:
All selected top-scoring compounds were tested for their cellular toxicity against human fibroblasts cell line (WI-38). Cell line (WI-38; ATCC: CCL-75) was maintained in earth RPMI 1640 medium comprising 10% heat-inactivated fetal bovine serum (FBS) and grown at 37 °C and 5% CO2. The cell line was seeded on 96-well cell culture plates (2 × 10^4 cells/well). Cells were stimulated with tested compounds at different concentrations (from 1 to 50 µM) overnight in triplicates. Doxorubicin was used as a positive control. Cell viability was assessed by MTT assay. To normalize cell viability values, each plate included a triplicate of untreated cells considered as 100% viability, and a triplicate of cells treated with a cytotoxic mixture (200 ng/mL TNF, 200 ng/mL CD95L, 200 ng/mL TRAIL, 5 μg/mL CHX, 1% (w/v) sodium azide […]) considered as 0% viability. All other viability values were normalized according to the averages of these triplicates and analyzed by the Graph Pad Prism 5 software (La Jolla, CA, USA).

Take `NCC[C@H](O)C(=O)N[C@@H]1C[C@H](N)[C@@H](O[C@H]2O[C@H](CN)[C@@H](O)[C@H](O)[C@H]2O)[C@H](O)[C@H]1O[C@H]1O[C@H](CO)[C@@H](O)[C@H](N)[C@H]1O` [Amikacin, reference compound]: the “MIC (antibiotic susceptibility) E. coli MDRb” value in series [1] worked out at 8 µg/mL (≈ 13.7 µM).

`CC1(C)S[C@@H]2[C@H](NC(=O)[C@H](N)c3ccccc3)C(=O)N2[C@H]1C(=O)O` [Ampicillin, reference compound]: in series [2], the “MIC (antibiotic susceptibility) E. coli MDRa” value is listed as over 64 µg/mL. The “MIC (antibiotic susceptibility) E. coli MDRb” value in series [1] was over 64 µg/mL.

As to `CC[C@H]1OC(=O)[C@H](C)[C@@H](O[C@H]2C[C@@](C)(OC)[C@@H](O)[C@H](C)O2)[C@H](C)[C@@H](O[C@@H]2O[C@H](C)C[C@H](N(C)C)[C@H]2O)[C@](C)(O)C[C@@H](C)CN(C)[C@H](C)[C@@H](O)[C@]1(C)O` [Azithromycin, reference compound], the “MIC (antibiotic susceptibility) E. coli MDRb” value in series [1] was determined as 16 µg/mL (≈ 21.4 µM).

In the case of `CO/N=C(\C(=O)N[C@@H]1C(=O)N2C(C(=O)O)=C(COC(C)=O)CS[C@H]12)c1csc(N)n1` [Cefotaxime, reference compound], in series [2], the “MIC (antibiotic susceptibility) E. coli MDRa” value is 32 µg/mL (≈ 70.3 µM). In addition, the “MIC (antibiotic susceptibility) E. coli MDRb” value in series [1] is given as 64 µg/mL (≈ 141 µM).

Take `CC(C)(O/N=C(\C(=O)N[C@@H]1C(=O)N2C(C(=O)[O-])=C(C[n+]3ccccc3)CS[C@H]12)c1csc(N)n1)C(=O)O` [Ceftazidime, reference compound]: in series [2], the “MIC (antibiotic susceptibility) E. coli MDRa” value was determined as 32 µg/mL (≈ 58.5 µM). The “MIC (antibiotic susceptibility) E. coli MDRb” value in series [1] is 16 µg/mL (≈ 29.3 µM).

Regarding `N[C@@H]1CON=C1O` [D-cycloserine, reference compound], the IC50 in series [3] (10-1000 µM tested, read-out: IC50 Ddl-B) amounted to 362 µM. The Ki in series [3] (read-out: Ki Ddl-B) was 118 ± 11.7 µM. Also, the MIC in series [2] was 16 µg/mL (≈ 157 µM); in series [1], 16 µg/mL (≈ 157 µM); with MRSA (ATCC 25529), 32 µg/mL (≈ 313 µM); with VRSA (clinical isolate), 32 µg/mL (≈ 313 µM).

Turning to `COc1cccc2c1C(=O)c1c(O)c3c(c(O)c1C2=O)C[C@@](O)(C(=O)CO)C[C@@H]3O[C@H]1C[C@H](N)[C@H](O)[C@H](C)O1` [Doxorubicin, reference compound], the CC50 in series [4] was 26.2 ± 0.61 µM.

As for `C[C@H]1COc2c(N3CCN(C)CC3)c(F)cc3c(=O)c(C(=O)O)cn1c23` [Levofloxacin, reference compound], the “MIC (antibiotic susceptibility) E. coli MDRa” value in series [2] worked out at 16 µg/mL (≈ 44.3 µM).

As to `CO[C@@H]1[C@@H](OC(N)=O)[C@@H](O)[C@H](Oc2ccc3c(O)c(NC(=O)c4ccc(O)c(CC=C(C)C)c4)c(=O)oc3c2C)OC1(C)C` [Novobiocin, reference compound], the MIC in series [2] turned out to be 64 µg/mL (≈ 104 µM); in series [1], 64 µg/mL (≈ 104 µM); in the series on MRSA (ATCC 25529) it was 1 µg/mL (≈ 1.63 µM); in the series on VRSA (clinical isolate), 1 µg/mL (≈ 1.63 µM).
